Assay results taken from US9884857B2, “Salts of dasatinib in amorphous form” (BASF SE, priority 2013, dated 2018).

Tests used:
[1] = heating rate 10° C. per minute, dried sample
Method: Differential scanning calorimetry: DSC is carried out with a TA Instruments DSC Q2000 using hermetically sealed gold sample pans. The heating rate is 10° C. per minute. Samples are dried under nitrogen before sample pans are closed under nitrogen.

[2] = 11 months of storage at room temperature (Example 1: closed glass vial)
Method: Powder X-Ray Diffraction:
The measurements are carried out with a Bruker D8 Advance powder X-ray diffractometer using Cu Kα radiation in the Bragg-Brentano reflection geometry. Generally, the 2θ values are accurate within an error of ±0.1-0.2°. The relative peak intensities can vary considerably for different samples of the same crystalline form because of different preferred orientations of the crystals. The samples are prepared without any special treatment other than the application of slight pressure to get a flat surface. Generally, silicon single crystal sample holders of 0.1 mm, 0.5 mm or 1.0 mm depth are used. The tube voltage and current are 40 kV and 40 mA, respectively. The X-ray diffractometer is equipped with a LynxEye detector. A variable divergence slight is used with a 3° window. The step size is 0.02° 2θ with a step time of 37 seconds. The samples are rotated at 0.5 rps during the measurement.

[3] = after two hours equilibration at 25° C.; resulting pH value 4.6
Method: Solubility Determinations:
Solubility determinations are carried out in pure water at 25±2° C. Suspensions with about 10 mg salt in 0.5 mL water are prepared and equilibrated for two hours before the solution phase is filtered off and tested by HPLC.
HPLC is carried out on an Agilent 1100 HPLC chromatograph equipped with a UV-vis detection unit. […] The column type used is a Waters XTerra MS C18, 250×4.6 mm, 5 μm (FK-CC14). The method as referenced above is an isocratic method using an aqueous ammonium acetate/acetic acid and methanol with a ratio of 55/45. The applied flow rate is 1.0 mL per minute, the injection volume is 20 microliter and the detection wavelength is 321 nm.

Row | Structure (SMILES) | glass transition (DSC step) [1] | crystalline material by powder X-ray diffraction after storage [2] | aqueous solubility [3] [mg/mL]
1 | Cc1nc(Nc2ncc(C(=O)Nc3c(C)cccc3Cl)s2)cc(N2CCN(CCO)CC2)n1.O=C1NS(=O)(=O)c2ccccc21 [Example 4, Dasatinib saccharinate] | about 113 °C |  | 
2 | Cc1nc(Nc2ncc(C(=O)Nc3c(C)cccc3Cl)s2)cc(N2CCN(CCO)CC2)n1.O=C(O)c1cccnc1 [Example 3, Dasatinib nicotinate] |  | no crystalline material is present | 
3 | Cc1nc(Nc2ncc(C(=O)Nc3c(C)cccc3Cl)s2)cc(N2CCN(CCO)CC2)n1.O=C(O)CCCC(=O)O [Example 2, Dasatinib glutarate] |  | no crystalline material is present | 
4 | Cc1nc(Nc2ncc(C(=O)Nc3c(C)cccc3Cl)s2)cc(N2CCN(CCO)CC2)n1.O=C1NS(=O)(=O)c2ccccc21 [Example 1, Dasatinib saccharinate] | ~130 °C | no crystalline material was present | 1.33
